pKd: −log10 of the molar value. Read-outs that look alike come from different tables or passages of the source.
How the values were obtained:
LKR/SDH = LKR/SDH expression in transformed maize cells carrying a theophylline "off" "trans" riboswitch; type: cell-based; settings: transformed cells treated with theophylline
Description: Similarly, a "trans" riboswitch is used to control expression of an endogenous target sequence (lysine ketoglutarate reductase/saccharopine dehydrogenase gene, LKR/SDH) in stably transformed maize plants. A modified transcribable DNA encoding an "off' "trans" riboswitch with theophylline as its ligand (Bayer and Smolke (2005) Nature Biotechnol., 23:337-343) is designed to target at least one region of the LKR/SDH sequence, and co-transformed into maize callus. LKR/SDH expression is assayed in the resulting transformed cells, where LKR/SDH expression is observed to be suppressed in transformed cells that are treated with theophylline.

CP4 = CP4 expression in stably transformed maize callus carrying a theophylline "off" "trans" riboswitch; type: cell-based; settings: transformed cells treated with theophylline
Text: "trans" riboswitches, similarly to the "cis" riboswitches described in Examples […], are useful in regulating transgenes. In a specific example, a transgenic plant including a "trans" riboswitch designed to regulate the glyphosate-resistance transgene CP4 as the target sequence is particularly useful in "trans" riboswitch-controlled applications parallel to that described in Example 23 (glyphosate as a ligand for ligand-activated herbicide resistance, or for control of herbicide resistant volunteers) and Example 24 (glyphosate as a chemical hybridization agent). To illustrate this approach, CP4 expression is suppressed in stably transformed maize callus. A modified transcribable DNA encoding an "off' "trans" riboswitch with theophylline as its ligand (Bayer and Smolke (2005) Nature Biotechnol., 23:337-343) is designed to target CP4 as a target sequence. Transcription of the theophylline riboswitch can be driven either by a pol II promoter (e. g., Figure 27A) or by pol III promoter (e. g., Figure 27B). The transcribable DNA is inserted into a binary vector (Figure 30) and co-transformed into maize callus under nptIII selection, generating stably transformed maize callus lines. CP4 expression is assayed in the transformed cells, where CP4 expression is observed to be suppressed in transformed cells that are treated with theophylline.

[1] = target: bacterial lysine riboswitches; settings: in vitro, Sudarsan et al. (2003), cited from earlier work

**Q.** Which results are given for `Cn1c(=O)c2[nH]cnc2n(C)c1=O` [theophylline]?
**A.** LKR/SDH expression (LKR/SDH): suppressed; CP4 expression (CP4): suppressed

**Q.** With `NCCCC[C@H](N)C(=O)O` [lysine] as the molecule, how does the pKd ([1]; read-out: Kd) read?
**A.** ~3.00

**Q.** What about the Kd ([1]; same value given in ppm) of the same molecule?
**A.** ~128 ppm
